Reference: US20130149721A1, “Methods for Inhibiting Amyloid Precursor Protein and Beta-Amyloid Production and Accumulation” (WISCONSIN ALUMNI RESEARCH FOUNDATION, priority 2008, published 2013)
Marks after values point to notes of the source that are not given here.

Tests used:
[1] = tested on: PTZ-induced seizures in WT, Fmr-1 KO, Tg2576 and FRAXAD mice; assay: PTZ seizure induction after MPEP pre-treatment; assay type: in vivo, mouse; conditions: 30 mg/kg MPEP I.P. 30 min prior to PTZ
Procedure: To assess the impact of mGluR5 inhibition on seizure phenotypes, Frm-1 KO, Tg2576, and FRAXAD mice were treated with mGluR5 antagonist, MPEP. Tg2576, FRAXAD and littermate controls were treated with 30 mg/kg MPEP (via I.P. injections) 30 min prior to seizure induction with PTZ. The experimental results presented in Table 2 support MPEP's effect as an anti-convulsant in both WT and Fmr-1 KO mice. WT male mice reach a grade 3 seizure, fully developed minimal seizure with clonus of the head muscles and forelimbs, at a rate of 50% in response to 50 mg/kg PTZ, but only 20% achieve a grade 3 seizure with MPEP treatment 30 min prior to PTZ (statistically significant, χ^2 test, p<0.0005). Likewise, there was a reduction from 11% to 0%, 46% to 25%, and 40% to 33% in WT females, Fmr-1 KO males and Fmr-1 KO females, respectively when tested using the seizure induction assay.

[2] = tested on: audiogenic seizures in mice; assay: Audiogenic seizure (AGS) testing; assay type: in vivo, mouse; conditions: MPEP 30 mg/kg I.P. 30 min prior to AGS testing
Procedure: Audiogenic Seizure Testing, Data Analyses and mGluR5 Blockade: All mouse strains were tested at postnatal day 21, the peak of AGS sensitivity. The experimental apparatus consisted of a clear, Plexiglas box (13″L×8″W×7″H) with the sound source located inside the box (LOUD KEY™ jogger's alarm). Mice were weighed and then placed individually into the center of the chamber and exposed to a siren that generated noise at 118 dB for 5 min. Loud, acoustic stimulation causes wild running (WR) behavior within 20-30 sec followed by erratic leaping, clonic convulsions and tonic hind limb extension by 40-50 sec followed by respiratory arrest and death (Chen, et al., 2001, Neuroscience 103, 1043-1050). The animals were scored for the latency time of wild running (WR), AGS and respiratory arrest (death). […] MPEP was a kind gift from FRAXA Research Foundation (Newburyport, Mass.) and was dissolved at 1 mg/mL in DPBS before I.P. injection at 30 mg/kg body weight 30 min prior to AGS testing.
Tg2576 mice over-expressed hAPPSwe and hAβ. FRAXAD were a cross between fmr-1^−/− (Fragile X mouse model) and Tg2576 (AD mouse model) and generated 23% more brain hAβ1-40 than Tg2576 (Westmark et al., 2008, Int J Clin Exp Pathol 1: 157-168). […] It was determined whether hAPPSwe/hAβ over-expression in an fmr-1 null background (FRAXAD mice) increased AGS. C57BL/6 fmr-1^−/− mice were sensitive to AGS from 15-47 days with a peak at 21 days (Yan et al., 2005, Neuropharmacology 49: 1053-1066). AGS in WT, fmr-1^−/−, Tg2576 and FRAXAD mice was examined at 21 days of age. Mice were transferred to a Plexiglas box (13″L×8″W×7″H) shortly after weaning and exposed to high pitch siren (118 dB) from a personal body alarm (LOUD KEY™).
A common denominator between Fragile X Syndrome (FXS), Downs Syndrome (DS), and Alzheimer's Disease (AD) is the over-expression of amyloid precursor protein (APP) and/or beta-amyloid (Aβ). […] Additionally, methods that decreased APP/Aβ levels were expected to reduce AGS. Accordingly, AGS rates were examined in AD, FXS and DS mouse models. AGS rates for FRAXAD, Tg2576, and fmr-1^−/−, Ts65Dn were described above in Example 6. Here, the ability of 2-methyl-6-(phenylethynyl)pyridine hydrochloride (MPEP) to attenuate AGS was assessed. Tg2576 and FRAXAD mice were treated with MPEP for 30 min prior to AGS stimulation to assess the effect of mGluR5 blockade on seizure propensity in AD mouse models.

Cc1cccc(C#Cc2ccccc2)n1 [MPEP, 2-methyl-6-(phenylethynyl)pyridine]
MPEP + PTZ % death ([1]; FMR-1 KO female): 0%
MPEP + PTZ % grade 3 ([1]; FMR-1 KO female): 33%
MPEP + PTZ % death ([1]; FMR-1 KO male): 0%
MPEP + PTZ % grade 3 ([1]; FMR-1 KO male, 30 mg/kg): 25%
MPEP + PTZ % death ([1]; FRAXAD female): 40* %
MPEP + PTZ % grade 3 ([1]; FRAXAD female): 100%
MPEP + PTZ % death ([1]; FRAXAD male): 60* %
MPEP + PTZ % grade 3 ([1]; FRAXAD male): 80%
MPEP + PTZ % death ([1]; Tg2576 female): 50* %
MPEP + PTZ % grade 3 ([1]; Tg2576 female): 75%
MPEP + PTZ % death ([1]; Tg2576 male): 75%
MPEP + PTZ % grade 3 ([1]; Tg2576 male): 100%
MPEP + PTZ % death ([1]; WT female): 0%
MPEP + PTZ % grade 3 ([1]; WT female, 30 mg/kg): 0%
MPEP + PTZ % death ([1]; WT male): 0%
MPEP + PTZ % grade 3 ([1]; WT male, 30 mg/kg): 20%
% Death ([2]; FRAXAD mice): 7%
% WR ([2]; FRAXAD mice): 60%
% Death ([2]; Fmr-1 KO mice): 0%
% WR ([2]; Fmr-1 KO mice): 14%
% Death ([2]; Tg2576 mice): 0%
% WR ([2]; Tg2576 mice): 0%
% AGS ([2]; WT mice): 0%
% Death ([2]; WT mice): 0%
% WR ([2]; WT mice): 0%
